In ChEMBL document CHEMBL4842305, “Bifunctional Doscadenamides Activate Quorum Sensing in Gram-Negative Bacteria and Synergize with TRAIL to Induce Apoptosis in Cancer Cells” (2021):
Activity calls are given as the source filed them. No cut-off for these calls is given here.

Assays:
[1] = system: Pseudomonas aeruginosa; test: Binding affinity to Pseudomonas aeruginosa LasR Y56F mutant expressed in Escherichia coli at 100 uM measured after 6 hrs by luminescence assay; details: filed as activator
[2] = molecular target: T1, Transcriptional activator protein LasR (Pseudomonas aeruginosa (strain ATCC 15692 / PAO1 / 1C / PRS 101 / LMG12228)) (UniProt P25084); test: Binding affinity to wild type Pseudomonas aeruginosa LasR expressed in Escherichia coli at 100 uM measured after 6 hrs by luminescence assay; details: filed as activator
T1 sequence (whole entry): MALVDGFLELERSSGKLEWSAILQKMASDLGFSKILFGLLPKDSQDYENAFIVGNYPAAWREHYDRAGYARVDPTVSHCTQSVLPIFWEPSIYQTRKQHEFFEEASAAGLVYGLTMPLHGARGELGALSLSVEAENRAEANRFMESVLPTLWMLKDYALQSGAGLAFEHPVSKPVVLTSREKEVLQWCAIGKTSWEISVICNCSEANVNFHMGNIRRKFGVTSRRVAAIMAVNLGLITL

[3] = system: MDA-MB-231; test: Synergistic anticancer activity against human MDA-MB-231 cells assessed as reduction in cell viability at 25 uM pretreated for 3 hrs followed by TRAIL stimulation measured after 24 hrs; type: functional; design: unit not given here; details: time 27 hrs
[4] = system: MDA-MB-231; test: Synergistic anticancer activity against human MDA-MB-231 cells assessed as reduction in cell viability at 50 uM pretreated for 3 hrs followed by TRAIL stimulation measured after 24 hrs; type: functional; design: unit not given here; details: time 27 hrs
[5] = system: Pseudomonas aeruginosa; test: Binding affinity to Pseudomonas aeruginosa LasR D73N mutant expressed in Escherichia coli at 100 uM measured after 6 hrs by luminescence assay; details: filed as activator
[6] = Activation of quorum sensing system in Pseudomonas aeruginosa JP1 assessed as increase in pyocyanin production at 100 uM measured after 6 hrs relative to control; details: for fold change (FC): filed as activator
[7] = system: Pseudomonas aeruginosa; test: Binding affinity to Pseudomonas aeruginosa LasR W60F mutant expressed in Escherichia coli at 100 uM measured after 6 hrs by luminescence assay; details: filed as activator
[8] = system: Vibrio harveyi; test: Activation of quorum sensing in Vibrio harveyi from 10 to 200 uM after 7 hrs by luminescence method; details: filed as activator, dose 10-200 µM
[9] = system: MDA-MB-231; test: Induction of apoptosis in human MDA-MB-231 cells assessed as increase in cleaved PARP level at 50 uM by Western blot analysis; type: functional, cell-based
[10] = system: Vibrio harveyi; test: Activation of quorum sensing in Vibrio harveyi upto 100 uM after 7 hrs by luminescence method; details: filed as activator, dose microM <=100, time 7.0 hrs

For `C#CCCCC[C@@H](C)C(=O)NCCCC[C@H]1C(OC)=CC(=O)N1C(=O)[C@H](C)CCCCC#C`, the Activity [1] was “Active”, the Activity [2] was “Active” and the Activity [3] was 0.08. For the same molecule, the Activity [4] was 0.01, the Activity [5] was “Active” and the fold change (FC) [6] was 3. The Activity [7] was “Active” and the Activity [8] was “Active”.

For `C#CCCCC[C@@H](C)C(=O)NCCCC[C@@H]1NC(=O)C=C1OC`, the Activity [3] was 0.02, the Activity [4] was 0 and the Activity [6] was “inactive”.

For `CCCCCCCCCC(=O)CC(=O)N[C@H]1CCOC1=O`, the Activity [3] was 0.05 and the Activity [4] was -0.07.

With `CCCCCC[C@@H](C)C(=O)N1C(=O)C=C(OC)[C@@H]1CCCCNC(=O)OC(C)(C)C` the Activity [3] was 0.26, the Activity [4] was 0.14 and the Activity [9] was “Active”. For the same molecule, the fold change (FC) [6] was 5.

With `C#CCCCC[C@@H](C)C(=O)N1C(=O)C=C(OC)[C@@H]1CCCCNC(=O)OC(C)(C)C` the Activity [3] was 0.18, the Activity [4] was 0.05 and the fold change (FC) [6] was 3. The Activity [8] was “Active”.

`C=CCCCC[C@@H](C)C(=O)N1C(=O)C=C(OC)[C@@H]1CCCCNC(=O)OC(C)(C)C` showed an Activity [3] of 0.06, an Activity [4] of 0.02 and a fold change (FC) [6] of 4.

In the case of `C=CCCCC[C@@H](C)C(=O)NCCCC[C@H]1C(OC)=CC(=O)N1C(=O)[C@H](C)CCCCC=C`, the Activity [10] is reported as “Active”, the Activity [3] is reported as 0.31 and the Activity [4] is reported as 0.08.

With `CCCCCC[C@@H](C)C(=O)NCCCC[C@H]1C(OC)=CC(=O)N1C(=O)[C@H](C)CCCCCC` the Activity [3] was 0.31 and the Activity [4] was 0.23.
